Values of other authors as cited in publication PMC12901815 (Environmental Analysis, Health and Toxicology, 2025).

Settings: male Alderley Park rats, oral administration; cited from earlier work

polyaminopropylbiguanide [PHMB]
tissue distribution of radioactivity: the highest radioactivity occurred in adipose tissue, followed by kidneys and liver, without detectable brain accumulation
